Here are results for 2 molecules from US10426761B2, “Method for treatment of disease caused or aggravated by microorganisms or relieving symptoms thereof” (ARMS Pharmaceutical LLC, priority 2011, dated 2019).

In assay [1] the test system is F. nucleatum. The assay is described as follows: MIC, CLSI reference method. It is filed as cell-based, Fusobacterium nucleatum. The settings on record: 24 h. As to the method: (§1) Cells were allowed to grow in the presence or absence (growth control) of the test agents for 24 hours. The MIC for each agent was defined as the concentration that induced a 100% growth inhibition (compared to no-drug control).

The test system of assay [2] is P. gingivalis. Nature of the assay: MIC, CLSI reference method. It is filed as cell-based. The settings on record: 24 h. As to the method:
as §1

Assay [3] concerns S. mitis. The assay is described as follows: MIC, CLSI reference method. The format is cell-based. The settings on record: 24 h. As for the experimental part:
as §1

Assay [4] concerns S. mutans. Nature of the assay: MIC, CLSI reference method. It is filed as cell-based. The settings on record: 24 h. As for the experimental part:
as §1

The subject of assay [5] is S. oralis. The assay is described as follows: MIC, CLSI reference method. The conditions noted are these: 24 h. The format is cell-based. As for the experimental part: as §1
Assay [6] has as its system S. pneumonia. The assay is described as follows: MIC, CLSI reference method. The format is cell-based. The conditions noted are these: 24 h. As for the experimental part: as §1
Assay [7] relates to S. pyogenes. The assay is described as follows: MIC, CLSI reference method. The conditions noted are these: 24 h. It is filed as cell-based. As for the experimental part: as §1
Assay [8] concerns S. salivarius. Nature of the assay: MIC, CLSI reference method. It is filed as cell-based. The conditions noted are these: 24 h, 100% growth inhibition. As for the experimental part:
as §1

Assay [9] relates to Y. enterocolitica. The assay is described as follows: MIC, CLSI reference method. The format is cell-based. The conditions noted are these: 24 h. As to the method: as §1
The test system of assay [10] is C. albicans. Nature of the assay: MIC, CLSI microdilution (Candida). It is filed as cell-based.
For assay [11], the system named is C. krusei. The assay is described as follows: MIC, CLSI microdilution (Candida). The format is cell-based. For orientation: Dilution methods test growth across graded concentrations, often in twofold steps.
The test system of assay [12] is C. tropicalis. Nature of the assay: MIC, CLSI microdilution (Candida). It is filed as cell-based.
Assay [13] concerns C. glabrata. Nature of the assay: MIC, CLSI microdilution (Candida). The format is cell-based.
Assay [14] concerns Streptococcus salivarius, Candida albicans. Nature of the assay: in vitro filter insert-based barrier model (glycerin / xanthan gum). As for the experimental part:
To identify further examples of concentrations of glycerin and xanthan gum that can form a barrier effective in preventing the passage of microorganisms, different concentrations of the gum xanthan gum and humectant glycerin were tested (5%-95% glycerin; 0.005%-0.5% xanthan gum) singly and in combination using an in vitro filter insert-based barrier model. […] Glycerin or xanthan gum or their combinations (100 μL aliquots) were overlaid on the surface of the filter to form a barrier. […] Next, 5×10^4 cells of either bacteria or fungi were applied on top of the formed barrier in the filter inserts. Next, we placed these filter inserts on the surface of agar medium (Brain Heart Infusion (BHI) medium for bacteria, Sabouraud Dextrose (SD) medium for fungi) in 6-well plates. The plates along with the filter inserts were incubated overnight for 24 hours at 37° C. The plates were monitored for the presence of bacterial or fungal growth CFUs (colony forming units) in the agar medium as well as in the filter insert.

On to `[H]/N=C(\N/C(=N/[H])NCCCCCCNC(=N)NC(=N)Nc1ccc(Cl)cc1)Nc1ccc(Cl)cc1` [Chlorhexidine, chlorhexidine gluconate], for which the MIC in assay [1], in [2], in assay [3], in [4], in assay [5] and in [6] was 19.6 μg/mL chlorhexidine in each case. For the same molecule, the MIC in assay [7], in assay [8], in assay [9], in assay [10], in assay [11] and in assay [12] was 19.6 μg/mL chlorhexidine throughout. Besides, the MIC in assay [13] is 19.6 μg/mL chlorhexidine.
`OCC(O)CO` [glycerin]: the “concentration at which a barrier was formed when tested alone” value in [14] was “greater than or equal to 55%”.
